Values of other authors in US20210113664A1, “IMPLANTS FOR RELEASE OF LIPOPHILIC OR AMPHIPHILIC PHARMACEUTICAL SUBSTANCES” (Titan Pharmaceuticals, Inc., priority 2018, published 2021).

Conditions: values as reported by PubChem

Structure (SMILES) | log Poct
CC#CCC(C)[C@H](O)/C=C/[C@@H]1[C@H]2C/C(=C/CCCC(=O)O)C[C@H]2C[C@H]1O (some centres unmarked) [iloprost] | about 4.8
N[C@@H](Cc1cc(I)c(Oc2cc(I)c(O)c(I)c2)c(I)c1)C(=O)O [levothyroxine] | about 4
